Laboratory results reported in ChEMBL document CHEMBL1133833, “Dopaminergic 7-aminotetrahydroindolizines: ex-chiral pool synthesis and preferential D3 receptor binding” (Bioorg Med Chem Lett, 2001).

Columns and labels:
[1] = biological target: D(1A) dopamine receptor (Bos taurus, UniProt Q95136); test: In vitro ability to displace [3H]SCH-23390 from bovine Dopamine receptor D1 in striatal membranes.
[2] = biological target: T1, D(2) dopamine receptor (Bos taurus, UniProt P20288); test: In vitro ability to displace [3H]pramipexole from high affinity binding sites of bovine D2 receptors in striatal membranes.
T1 sequence (P20288 whole entry): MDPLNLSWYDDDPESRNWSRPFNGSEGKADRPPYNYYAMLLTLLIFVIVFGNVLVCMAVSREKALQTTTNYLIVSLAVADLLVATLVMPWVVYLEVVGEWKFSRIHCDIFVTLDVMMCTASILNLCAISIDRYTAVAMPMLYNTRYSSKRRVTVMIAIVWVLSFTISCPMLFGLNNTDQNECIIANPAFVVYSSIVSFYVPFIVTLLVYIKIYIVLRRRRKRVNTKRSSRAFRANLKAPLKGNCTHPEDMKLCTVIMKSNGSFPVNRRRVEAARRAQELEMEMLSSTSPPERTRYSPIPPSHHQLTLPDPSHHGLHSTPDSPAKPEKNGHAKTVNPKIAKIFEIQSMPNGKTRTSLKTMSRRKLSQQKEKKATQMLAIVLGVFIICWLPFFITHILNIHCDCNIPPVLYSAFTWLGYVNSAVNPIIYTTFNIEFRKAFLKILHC

[3] = biological target: D(3) dopamine receptor (Homo sapiens, UniProt P35462)
D(3) dopamine receptor, sequence (P35462 whole entry): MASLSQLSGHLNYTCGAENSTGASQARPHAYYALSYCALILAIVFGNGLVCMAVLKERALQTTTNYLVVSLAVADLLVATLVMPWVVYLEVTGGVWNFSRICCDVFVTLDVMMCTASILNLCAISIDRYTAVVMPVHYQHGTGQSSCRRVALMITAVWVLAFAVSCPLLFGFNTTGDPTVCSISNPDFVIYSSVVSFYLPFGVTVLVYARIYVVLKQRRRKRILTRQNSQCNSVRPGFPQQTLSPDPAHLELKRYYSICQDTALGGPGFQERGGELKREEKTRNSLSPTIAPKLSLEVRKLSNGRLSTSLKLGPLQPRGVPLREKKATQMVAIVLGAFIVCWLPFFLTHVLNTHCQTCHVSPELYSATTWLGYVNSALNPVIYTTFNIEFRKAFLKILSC
Description: In vitro ability to displace [3H]spiperone from human cloned Dopamine receptor D3 stably expressed in CHO cells.

[4] = biological target: T1, D(2) dopamine receptor; test: In vitro ability to displace [3H]-spiperone from bovine cloned Dopamine receptor D2 stably expressed in CHO cells.; type: cell-based

D(1A) dopamine receptor, sequence (Q95136 whole entry): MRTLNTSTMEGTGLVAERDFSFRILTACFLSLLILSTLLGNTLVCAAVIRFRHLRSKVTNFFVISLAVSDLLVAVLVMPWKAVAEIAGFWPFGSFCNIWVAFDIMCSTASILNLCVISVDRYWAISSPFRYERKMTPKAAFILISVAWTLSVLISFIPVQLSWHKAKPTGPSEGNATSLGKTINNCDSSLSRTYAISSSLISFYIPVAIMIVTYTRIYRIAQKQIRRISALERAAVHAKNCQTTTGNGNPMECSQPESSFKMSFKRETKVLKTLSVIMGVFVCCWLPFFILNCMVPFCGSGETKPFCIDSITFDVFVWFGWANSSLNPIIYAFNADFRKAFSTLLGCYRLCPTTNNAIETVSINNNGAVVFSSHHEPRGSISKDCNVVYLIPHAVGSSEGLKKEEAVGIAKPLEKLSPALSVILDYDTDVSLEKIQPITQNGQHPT

| SMILES | Ki [1] [µM] | Ki [2] [µM] | Ki [3] [µM] | Ki [4] [µM] |
| --- | --- | --- | --- | --- |
| CCCN(CCC)[C@@H]1CCn2cccc2C1 | > 100 | 0.15 | 0.56 | 4.1 |
| CCCN(CCC)[C@@H]1CCn2cc(C)cc2C1 | 83 | 0.8 | 1.3 | 17 |
| CCCN(CCC)[C@H]1CCn2c(CO)ccc2C1 | 13 | 0.087 | 0.42 | 5.5 |
| CCCN(CCC)[C@H]1CCn2c(C)ccc2C1 | 29 | 0.15 | 0.43 | 3.8 |
| CCCN(CCC)[C@H]1CCn2ccc(C)c2C1 | 68 | 0.38 | 0.75 | 4 |
| CCCN(CCC)[C@H]1CCn2cc(CO)cc2C1 | > 100 | 13 | 8.6 | > 100 |
| CCCN(CCC)[C@@H]1CCn2ccc(C)c2C1 | 71 | 1 | 2.1 | 12 |

Next, values leading:

| Ki [1] [µM] | Ki [2] [µM] | Ki [3] [µM] | Ki [4] [µM] | SMILES |
| --- | --- | --- | --- | --- |
| 26 | 0.021 |  |  | CCCN(CCC)[C@H]1CCn2c(C=O)ccc2C1 |
| 12 | 0.43 | 0.59 | 1.3 | CCCN(CCC)[C@@H]1CCn2c(C)ccc2C1 |
| 100 | 0.2 | 0.33 | 6.1 | CCCN(CCC)[C@@H]1CCn2ccc(CO)c2C1 |
| > 100 | 8 | 9.7 | 55 | CCCN(CCC)[C@H]1CCn2ccc(CO)c2C1 |
| 80 | 0.38 | 0.51 | 12 | CCCN(CCC)[C@@H]1CCn2ccc(C=O)c2C1 |
| 47 | 1.7 | 1.8 | 21 | CCCN(CCC)[C@@H]1CCn2c(C=O)ccc2C1 |
| > 100 | 1 | 1.4 | 34 | CCCN(CCC)[C@@H]1CCn2cc(CO)cc2C1 |
| 44 | 0.64 | 0.77 | 9.6 | CCCN(CCC)[C@H]1CCn2cc(C)cc2C1 |
| > 100 | 1.6 | 3.6 | 5.9 | CCCN(CCC)[C@H]1CCn2ccc(C=O)c2C1 |
| > 100 | 4.7 | 7.4 | 37 | CCCN(CCC)[C@@H]1CCn2c(CO)ccc2C1 |
